In patent US7504433B2, “Thiophene derivative PPAR modulators” (Eli Lilly and Company, priority 2003, dated 2009):

Cc1cc(OC[C@@H](C)c2sc(-c3ccc(C(F)(F)F)cc3)cc2C)ccc1CCC(=O)O (single isomer, unassigned) [Example 16, 3-(2-Methyl-4-{2-[3-methyl-5-(4-trifluoromethylphenyl)thiophen-2-yl]propoxy}-phenyl)propionic acid]
melting point: 126.2 to 132.6 °C
